# Measured values: publication PMC4965148 (PLoS ONE, 2016)
# “And” between values parts separate entries of the source, which are not always exact repeats. Equal entries are not always repeated.
# Target: T1, HEK293/Human 5-HT3A (Homo sapiens, UniProt P46098)
# T1 construct: expressed in transfected cells; host or cells: HEK293 (made by Bristol-Myers Squibb)
# T1 sequence (P46098 24-478): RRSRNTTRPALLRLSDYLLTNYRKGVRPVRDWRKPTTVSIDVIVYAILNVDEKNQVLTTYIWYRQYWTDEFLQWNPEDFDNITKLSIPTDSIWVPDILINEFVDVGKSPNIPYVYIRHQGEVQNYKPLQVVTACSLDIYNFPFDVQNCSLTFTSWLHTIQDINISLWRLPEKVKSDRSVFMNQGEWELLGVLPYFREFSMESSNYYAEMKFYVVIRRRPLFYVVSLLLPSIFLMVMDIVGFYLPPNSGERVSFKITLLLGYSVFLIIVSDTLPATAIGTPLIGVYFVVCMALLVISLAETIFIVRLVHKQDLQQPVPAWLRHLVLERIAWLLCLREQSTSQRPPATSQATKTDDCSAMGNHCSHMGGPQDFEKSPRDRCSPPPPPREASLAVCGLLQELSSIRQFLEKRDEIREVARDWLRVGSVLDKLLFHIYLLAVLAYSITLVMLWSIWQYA
# Experiment: Ca2+ flux (FLIPR) 5-HT3A antagonist assay
# Assay type: cell-based
# Protocol: Functional activity was examined using Ca^2+-sensitive, dye-based, microfluorometric assays read on the FLIPR Tetra plate reader platform (Molecular Devices, CA, USA). Cells were plated in 384-well black, clear-bottomed Greiner poly-D-lysine coated plates at a density of ~25 K cells/well and incubated at 29°C for 48 h. Prior to assay, media contents were removed and cells incubated in assay buffer containing 5μM final Fluo-4 dye for 90 min. For nAChR assays, the dye-loading buffer was HBSS (#14175 Life Technologies) supplemented with 20 mM HEPES, 0.5 mM CaCl2, 1 mM MgCl2 and 10 μM atropine (final concentration). Test compounds were solubilized in DMSO and serially diluted in NUNC 384-well plates prior to addition of assay buffer (5.3 mM KCl + 140 mM NaCl + 20 mM Hepes + 25 mM CaCl2 + 1 mM MgCl2 + 10 μM atropine final concentration). Compounds diluted in assay buffer were added to the assay plate by the FLIPR and read for approximately 2 min. […] For 5-HT3A antagonist studies, the dye loading and compound diluent buffer was HBSS (#14025 Life Technologies) supplemented with 20 mM HEPES (final concentration) and the concentration of 5-HT used in the assay was 2 μM. Offline transformation of concentration response data was done using a 4 parameter logistic fit using a Bristol-Myers Squibb proprietary informatics software suite.
compound,measurement,setting,value
"c1cn(-c2cc(NC3=NC[C@@]4(CN5CCC4CC5)O3)ncn2)cn1 [BMS-933043, (2R)-N-(6-(1H-imidazol-1-yl)-4-pyrimidinyl)-4'H-spiro[4-azabicyclo[2.2.2]octane-2,5'-[1,3]oxazol]-2'-amine]",IC50,"HEK293/Human 5-HT3A Mean ± SD IC50, Ca2+ flux (FLIPR), antagonism of 2 μM 5-HT",8.07 µM
same,IC50,"Human 5-HT3A IC50 values (individual), FLIPR, individual determinations",10.5 µM and 7.2 µM and 8.02 µM and 6.88 µM and 7.28 µM and 4.89 µM and 12.4 µM and 5.32 µM and 8.67 µM and 9.42 µM
